Test results: patent publication US20130005696A1, “BUFADIENOLIDE DERIVATIVES, PREPARING PROCESS THEREOF, COMPOSITION COMPRISING THE SAME AND THE USE THEREOF” (priority 2011, published 2013)

What was measured:
Assay type in all cases: in vivo, Balb/c nude mice
[1] = system: human-derived breast carcinoma MDA-MB-231 xenograft; assay: Therapeutic effect against MDA-MB-231 xenograft in nude mice; details: QOD × 7 d
Method: (§1) This experiment is to investigate the in vivo inhibitory effect of II1E-01.HCl on growth of human-derived hepatic carcinoma HepG2 cell, human-derived breast carcinoma MDA-MB-231 cell, human-derived lung carcinoma H460 cell, human-derived colon carcinoma HCT-116 cell, human-derived […] MV-4-11 cell xenografts in nude mice.
(§2) Formulation of solvent control (5% anhydrous ethanol & 5% aqueous glucose solution): 2.5 mL anhydrous ethanol was added into a 50 mL tube, followed by addition of 47.5 mL 5% glucose solution for injection followed by shaking, and stored at room temperature before use.
(§3) Formulation of the preparations of the compounds to be tested: formulations with concentrations of 0.4 mg/mL and 0.6 mg/mL were prepared respectively. An appropriate amount of II1E-01.HCl was weighted and put into a 50 mL tube, followed by addition of corresponding volume of solvent to get the desired concentration and mixed using a vortex mixer. After the solid was dissolved completely, the solution was subpackaged into 4 mL vials and stored at refrigerated condition (2-8° C.) until use.
(§4) Experimental animals: Balb/c nude mice (male, six weeks old).
19 days after MDA-MB-231 cells were implanted, the tumor size reached about 617 mm^3. The mice bearing the tumor were grouped and administered. The groups of II1E-01.HCl were administered once every other day (QOD), and the solvent control group was administered with the solvent control solution. After completion of the experiment, the tumor weight and the inhibition rate were calculated, and the results are summarized in Table 6. The high and middle dosage groups have significant inhibitory activities against the growth of MDA-MB-231 xenograft, and the effect depends on the amount obviously.
The tumor in this experiment had been allowed to grow to reach a relative bigger size before drug administration (the tumor size before drug administration was about 600 mm^3 while generally the tumor size was only 200-300 mm^3 before drug administration), which corresponds to a middle- or advanced-stage cancer.

[2] = system: human-derived leukaemia MV-4-11 xenograft; assay: Therapeutic effect against MV-4-11 xenograft in nude mice; details: for Inhibition Rate (%): 4 mg/kg
Method: as §1, §2, §3, §4
MV-4-11 cells were in vitro cultured to be proliferated. The cells in the log phase of growth were collected and resuspended in IMDM serum-free medium, and then implanted subcutaneously into the axilla of the right forelimb of nude mice. After 37 days, the tumor size reached about 270 mm^3. The mice bearing the tumor were grouped by randomized block method according to the tumor size into 3 groups, which contain 6 mice in each group and include the group of solvent control, group of positive control (Sunitinib 40 mg/kg), and group of the testing compound II1E-01.HCl (4 mg/kg QOD). In the positive control group, sunitinib was administered intragastrically once daily (QD). In the group of II1E-01.HCl, II1E-01.HCl was administered intravenously at tail once every other day (QOD). The animals were given the drugs for 21 days, during which the growth of tumor and the body weight of the mice were observed.
After continuously administering for 21 days (the 58th day after the implantation), the tumor weight and inhibition rate were calculated, and results are listed in Table 9. […] In the group of the testing compound II1E-01.HCl (4 mg/kg QOD), the tumor also completely disappeared at 14th day after administration, and the inhibition rate was 100.00% (P<0.01) at the end of the experiment.

[3] = system: human-derived colon carcinoma HCT-116 xenograft; assay: Therapeutic effect against HCT-116 xenograft in nude mice; details: QOD × 14 d
Method: as §1, §2, §3, §4
HCT116 cells were in vitro cultured to be proliferated. The cells in the log phase of growth were collected, resuspended in RPMI-1640 serum-free medium, and then implanted subcutaneously into the axilla of the right forelimb of nude mice. After 14 days, the tumor size reached about 470 mm^3. The mice bearing the tumor were grouped by randomized block method according to the tumor size into 3 groups, including the group of solvent control and groups of 4 mg/kg and 6 mg/kg dosages of the testing compound II1E-01.HCl. In the solvent control group, glucose injection was administered intravenously at tail once every other day (QOD). The testing compound II1E-01.HCl was administered intravenously (iv) at tail once every other day (QOD). The animals were given the drugs for 14 days, during which, the growth of tumor and the body weight of the mice were observed.
After continuously administering for 14 days (the 28th day after the implantation), the tumor weight and inhibition rate were calculated, and results are listed in Table 8.

Q: Which “Inhibition Rate (%)” value ([1]; 2 mg/kg iv) does the source give for C[C@]12CC[C@H](OC(=O)NC3CCNCC3)C[C@H]1CC[C@@H]1[C@@H]2CC[C@]2(C)[C@@H](c3ccc(=O)oc3)CC[C@]12O.Cl [II1E-01•HCl] here?
A: 16.36%

Q: What about the “Tumor Weight(g) Mean ± SE” value ([1]; 2 mg/kg iv) of the same compound?
A: 2.6063 ± 0.2731 g

Q: And the “Inhibition Rate (%)” value ([1]; 4 mg/kg iv)?
A: 33.99%

Q: And the “Tumor Weight(g) Mean ± SE” value ([1]; 4 mg/kg iv)?
A: 2.0569 ± 0.1340 g

Q: And the “Inhibition Rate (%)” value ([1]; 6 mg/kg iv)?
A: 52.23%

Q: And the “Tumor Weight(g) Mean ± SE” value ([1]; 6 mg/kg iv)?
A: 1.4887 ± 0.1763 g

Q: And the “day after administration at which the tumor completely disappeared” value ([2]; 4 mg/kg iv QOD)?
A: 14 days

Q: What about the “Tumor Weight(g) Mean ± SE” value ([2]; 4 mg/kg iv, QOD × 21 d) of the same compound?
A: 0.0000 ± 0.0000 g

Q: What about the “Inhibition Rate (%)” value ([2]; 4 mg/kg iv, QOD × 21 d) of the same compound?
A: 100.00%

Q: And the “Inhibition Rate (%)” value ([2]; 4 mg/kg iv, QOD × 21 d, listed as II1E-01.HCl)?
A: 100.00%

Q: What about the “Tumor Weight(g) Mean ± SE” value ([3]; 4 mg/kg iv) of the same compound?
A: 0.8017 ± 0.0480 g

Q: What about the “Inhibition Rate (%)” value ([3]; 4 mg/kg iv, 4 mg/kg) of the same compound?
A: 36.82%

Q: And the “Inhibition Rate (%)” value ([3]; 4 mg/kg iv, listed as II1E-01.HCl, 4 mg/kg)?
A: 36.82%

Q: And the “Tumor Weight(g) Mean ± SE” value ([3]; 6 mg/kg iv)?
A: 0.4147 ± 0.0212 g

Q: What about the “Inhibition Rate (%)” value ([3]; 6 mg/kg iv, 6 mg/kg) of the same compound?
A: 67.33%

Q: What about the “Inhibition Rate (%)” value ([3]; 6 mg/kg iv, listed as II1E-01.HCl, 6 mg/kg) of the same compound?
A: 67.33%
